Assay results taken from paper PMC4706532, “Diarylthiophenes as inhibitors of the pore-forming protein perforin” (Bioorganic & Medicinal Chemistry Letters, 2016).
Values after ≈ are worked out from the molar mass of the structure shown.

Tests used:
recombinant perforin = target: T1, recombinant perforin (Mus musculus, UniProt P10820); experiment: Inhibition of perforin-mediated lysis of Jurkat cells (51Cr release); conditions: isolated perforin
T1 sequence (P10820 21-554): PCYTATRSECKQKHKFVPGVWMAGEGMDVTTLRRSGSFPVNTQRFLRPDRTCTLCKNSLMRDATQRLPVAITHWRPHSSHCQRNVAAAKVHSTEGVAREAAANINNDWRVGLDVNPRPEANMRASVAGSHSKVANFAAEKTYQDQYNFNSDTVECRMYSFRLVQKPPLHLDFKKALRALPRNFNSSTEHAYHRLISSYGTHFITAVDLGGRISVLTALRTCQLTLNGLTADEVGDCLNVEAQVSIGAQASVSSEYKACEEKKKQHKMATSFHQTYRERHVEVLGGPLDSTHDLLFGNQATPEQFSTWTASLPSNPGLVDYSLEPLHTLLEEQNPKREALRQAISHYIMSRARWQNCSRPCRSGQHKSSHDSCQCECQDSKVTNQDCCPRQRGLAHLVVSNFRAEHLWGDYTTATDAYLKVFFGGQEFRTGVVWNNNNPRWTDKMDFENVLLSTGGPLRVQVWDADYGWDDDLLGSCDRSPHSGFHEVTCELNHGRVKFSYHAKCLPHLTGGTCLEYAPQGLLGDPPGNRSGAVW
Procedure: The ability of the compounds to inhibit the lysis of nucleated (Jurkat T lymphoma) cells in the presence of 0.1% BSA, as measured by release of ^51Cr was measured. Jurkat target cells were labelled by incubation in medium with 100 µCi ^51Cr for one hour. The cells were then washed three times to remove unincorporated isotope and re-suspended at 1 x 10^5 cells per mL in RPMI buffer supplemented with 0.1% BSA. Each test compound was pre-incubated to concentrations of 20, 10, 5, 2.5 and 1.25 µM with recombinant perforin for 30 min with DMSO as a negative control. ^51Cr labelled Jurkat cells were then added and cells were incubated at 37 °C for 4 h. The supernatant was collected and assessed for its radioactive content on a gamma counter (Wallac Wizard 1470 automatic gamma counter). Each data point was performed in triplicate and an IC50 was calculated from the range of concentrations described to above.

[1] = Plasma stability, mouse plasma; type: in vitro ADME; conditions: % parent remaining at 24 h, 37 °C
Procedure: (§1) Preliminary stability studies were carried out by incubation in human or mouse plasma at 37 °C with the percentage parent remaining measured at 24 h (Table 2). […] In mouse plasma the ratio of open to closed is 50:50%, while in human plasma this shifts to 90:10 due to the strong affinity of human serum albumin for the ring-opened form.[20] It is likely that the same phenomenon is operating in the present case and while not necessarily an issue for mouse studies, will need to be addressed in future work.
(§2) Incubation method - Mouse (CD-1, male) and human (pooled) plasma pH was adjusted to 7.4 with either 1M phosphoric acid or sodium hydroxide. Plasma was spiked with 100 uM of test compounds and divided into two parts; one part was immediately transferred to -80 °C (control), and the second part was incubated at 37 °C at 24 h.
(§3) At the end of the study duration, samples were transferred to -80 °C until ready to analyse by HPLC-DAD. On the day of analysis, control and incubated samples were thawed on wet ice and mixed.
(§4) Sample treatment for HPLC - 20 uL of samples were mixed with 80 uL (1:4 v/v) ice cold acetonitrile to precipitate the plasma proteins, centrifuged at 13,000 rpm for 5 min to obtain the clear supernatant. The supernatant was diluted with 0.01% formic acid– water (1:2 v/v) and 50 uL was injected onto the HPLC system (Agilent).
(§5) Calculation: The % loss was calculated based on peak area using the following formula: (peak area time “0”- peak area time “24h”)/peak area time “0” multiplied by 100. % Remaining = 100 - % loss.

[2] = Plasma stability, human plasma; type: in vitro ADME; conditions: % parent remaining at 24 h, 37 °C
Procedure: as §1, §2, §3, §4, §5

[3] = tested on: perforin delivered by KHYG-1 NK cells; experiment: KHYG-1 cytotoxicity assay: lysis of K562 target cells by KHYG-1 NK cells (51Cr release); type: cell-based, human
Procedure: The compounds were then evaluated for their ability to block the effect of perforin delivered by whole KHYG-1 NK cells (Table 2). Employing whole NK cells is a more rigorous model of conditions in vivo than the use of isolated recombinant protein since effector cell identification of the labelled target cell and formation of an immune synapse are required for perforin release. […] After co-incubation of inhibitor with KHYG-1 NK cells in medium for 30 min at room temperature, ^51Cr-labelled K562 leukaemia target cells were added and cell lysis evaluated after 4 h incubation at 37 °C by measuring ^51Cr release. […] Viable and dead cells were counted and percent viability calculated based on total cell count (for further details see Supplementary data). […] For the purposes of this work, compounds are classified as toxic if NK cell viability falls below 70%. This is due to the importance of CTLs and NK cells in the overall immunological response which means that it is essential that any pharmacological intervention allows rapid recovery of these cytotoxic effector cells for normal immunological function.
KHYG-1 cells were washed and re-suspended in RPMI + 0.1% BSA at 4 × 10^5 cells/mL, and an amount of 50 μL of KHYG-1 cells was dispensed to each well of a 96-well V-bottom plate. RPMI (50 μL) + 0.1% BSA or 10% (final concentration) of serum was added to each well. Then test compounds were added to KHYG-1 cells at various concentrations up to 20 μM and incubated at room temperature for […]. 1 × 10^6 K562 target cells were labelled with 75 μCi ^51Cr in 200 μL of RPMI for 90 min at 37 °C. Cells were washed as described above and re-suspended in 5 mL of RPMI + 0.1% BSA. An amount of 50 μL of ^51Cr labelled K562 leukaemia target cells was added to each well of the KHYG-1 plate (effector/target 2:1) and incubated at 37 °C for 4 h. ^51Cr release was assayed using a Skatron harvesting press and radioactivity estimated on a Wallac Wizard 1470 automatic γ counter (Turku, Finland). The percentage of specific cytotoxicity was calculated using the following formula:
% specific lysis = […]
(maximum release - spontaneous release)
and expressed as the mean of triplicate assays ± standard error of the mean.

Solubility in water = conditions: for solubility: water

| SMILES | melting point [°C] | Inhibition of perforin lytic activity in Jurkat assay (in words) (recombinant perforin) | also measured |
| --- | --- | --- | --- |
| Cc1ccc(-c2ccc(-c3ccc4c(c3)COC4=O)s2)cc1 [Compound 9] | 184 to 186 |  |  |
| O=C1OCc2cc(-c3ccc(-c4cccc(O)c4)s3)ccc21 [Compound 18] | 276 to 279 |  |  |
| COc1cccc(-c2ccc(-c3ccc4c(c3)COC4=O)s2)c1 [Compound 14] | 165 to 167 | no detectable inhibition |  |
| O=C1OCc2cc(-c3ccc(-c4ccccc4)s3)ccc21 [Compound 6] | 231 to 233 |  |  |
| O=C1OCc2cc(-c3ccc(-c4ccccc4Cl)s3)ccc21 [Compound 10] | 131 to 133 |  |  |
| CS(=O)(=O)Nc1ccc(-c2ccc(-c3ccc4c(c3)COC4=O)s2)cc1 [Compound 63] |  |  | Plasma stability (% at 24 h) Mouse [1]: 80%; Plasma stability (% at 24 h) Human [2]: 70%; KHYG-1 inhibition (% at 20 μM) ([3]; compound 20 μM, perforin-induced lysis of K562 target cells co-incubated with KHYG-1 human NK cells, vs untreated control): No activity; Activity against perforin delivered by whole KHYG-1 NK cells (in words) ([3]; whole human NK cells, K562 targets): poor or no activity |
| NC(=O)c1ccc(-c2ccc(-c3ccc4c(c3)COC4=O)s2)cc1N [Compound 55] |  |  | solubility (Solubility in water): 9.4 µg/mL (≈ 26.8 µM) |
| Cc1ccccc1-c1ccc(-c2ccc3c(c2)COC3=O)s1 [Compound 7] | 109 to 111 |  |  |
| Cc1cccc(-c2ccc(-c3ccc4c(c3)COC4=O)s2)c1 [Compound 8] | 192 to 194 |  |  |
| O=C1OCc2cc(-c3ccc(-c4ccc5c(c4)COC5=O)s3)ccc21 [Compound 71] |  | only moderately potent | Solubility (in words) (Solubility in water): extremely insoluble |
| O=C1OCc2cc(-c3ccc(-c4ccc(Cl)cc4)s3)ccc21 [Compound 12] | 231 to 234 |  |  |
| O=C(NCCO)c1ccc(-c2ccc(-c3ccc4c(c3)COC4=O)s2)cc1O [Compound 51] |  |  | solubility (Solubility in water): 15.7 µg/mL (≈ 39.7 µM) |
| COc1ccc(-c2ccc(-c3ccc4c(c3)COC4=O)s2)cc1 [Compound 15] | 224 to 227 |  |  |
| O=C1OCc2cc(-c3ccc(-c4cccc(Cl)c4)s3)ccc21 [Compound 11] | 207 to 209 |  |  |
| COc1ccccc1-c1ccc(-c2ccc3c(c2)COC3=O)s1 [Compound 13] | 190 to 192 | no detectable inhibition |  |
| O=C1OCc2cc(-c3ccc(-c4ccc(O)cc4)s3)ccc21 [Compound 19] | 279 to 282 | loses all activity |  |
| NC(=O)CNC(=O)c1ccc(-c2ccc(-c3ccc4c(c3)COC4=O)s2)cc1O [Compound 53] |  |  | solubility (Solubility in water): 4.7 µg/mL (≈ 11.5 µM) |

The next lines start with results.

| melting point [°C] | Inhibition of perforin lytic activity in Jurkat assay (in words) (recombinant perforin) | SMILES | also measured |
| --- | --- | --- | --- |
|  | abolishes activity completely | CN1CCN(C(=O)c2ccc(-c3ccc(-c4ccc5c(c4)COC5=O)s3)cc2)CC1 [Compound 31] |  |
|  | poor activity or were inactive | O=C(NCCN1CCOCC1)c1ccc(-c2ccc(-c3ccc4c(c3)COC4=O)s2)cc1O [Compound 49] |  |
| 278 to 280 |  | CS(=O)(=O)c1ccc(-c2ccc(-c3ccc4c(c3)COC4=O)s2)cc1 [Compound 60] |  |
| 287 to 290 | loss of activity | CN1Cc2cc(-c3ccc(-c4ccc(C(N)=O)cc4)s3)ccc2C1=O [Compound 23b] |  |
| 185 to 188 | poor activity or were inactive | CN(C)CCCNC(=O)c1ccc(-c2ccc(-c3ccc4c(c3)COC4=O)s2)cc1 [Compound 32] |  |
| 273 to 276 |  | NS(=O)(=O)c1cccc(-c2ccc(-c3ccc4c(c3)COC4=O)s2)c1 [Compound 61] |  |
|  | loss of activity | NC(=O)c1ccc(-c2ccc(-c3ccc4c(c3)CNC4=O)s2)cc1 [Compound 23a] |  |
| 260 to 261 |  | O=C1OCc2cc(-c3ccc(-c4ccncc4)s3)ccc21 [Compound 70] |  |
| 259 to 263 |  | NC(=O)c1cccc(-c2ccc(-c3ccc4c(c3)COC4=O)s2)c1 [Compound 22] |  |
| 290 to 292 | abolishes activity completely | CN(C)C(=O)c1ccc(-c2ccc(-c3ccc4c(c3)COC4=O)s2)cc1 [Compound 30] |  |
| 299 to 302 | loss of efficacy | CNC(=O)c1ccc(-c2ccc(-c3ccc4c(c3)COC4=O)s2)cc1 [Compound 29] |  |
| 208 to 210 |  | CCOC(=O)c1ccc(-c2ccc(-c3ccc4c(c3)COC4=O)s2)cc1O [Compound 40] |  |
| 242 to 245 | poor activity or were inactive | CN(C)CCNC(=O)c1ccc(-c2ccc(-c3ccc4c(c3)COC4=O)s2)cc1O [Compound 50] |  |
| 241 to 244 |  | CC(O)CNC(=O)c1ccc(-c2ccc(-c3ccc4c(c3)COC4=O)s2)cc1O (stereo not drawn) [Compound 52] |  |
| 250 to 251 | activity is lost altogether | N#Cc1cccc(-c2ccc(-c3ccc4c(c3)COC4=O)s2)c1 [Compound 20] |  |
| 255 to 257 |  | CC(C)(C)NS(=O)(=O)c1ccc(-c2ccc(-c3ccc4c(c3)COC4=O)s2)cc1 [Compound 62] |  |
| 209 to 211 | poor activity or were inactive | Nc1cc(-c2ccc(-c3ccc4c(c3)COC4=O)s2)ccc1C(=O)NCCN1CCOCC1 [Compound 56] |  |
| 239 to 241 |  | CSc1ccc(-c2ccc(-c3ccc4c(c3)COC4=O)s2)cc1 [Compound 58] |  |
| 185 to 188 | poor activity or were inactive | CN(C)CCNC(=O)c1ccc(-c2ccc(-c3ccc4c(c3)COC4=O)s2)cc1N [Compound 57] |  |
